# Measurements as given in patent EP4570800A1, “CRYSTAL FORM OF PYRIDINOPYRIMIDINONE COMPOUND, ACID SALT THEREOF, CRYSTAL FORM OF ACID SALT THEREOF, AND USE” (Wuhan Humanwell Innovative Drug Research and Development …, priority 2022, dated 2024).
# Assays:
# [1] = Human liver microsome stability test; type: in vitro ADME; conditions: human liver microsomes
# Procedure: The human liver microsome stability test was performed by incubating the compound and human liver microsomes in vitro. First, the compound to be tested was prepared into a 10 mM stock solution in DMSO solvent, and then the compound was diluted to 0.5 mM with acetonitrile. Human liver microsomes (Corning) were diluted with PBS into a microsome/buffer solution, and the solution was used to dilute 0.5 mM compound into a working solution, in which the concentration of the compound was 1.5 µM, and the concentration of human liver microsomes was 0.75 mg/mL. A deep-well plate was taken, 30 µL of the working solution was added per well, and then 15 µL of pre-heated 6 mM NADPH solution was added thereto to initiate a reaction, and the reaction was incubated at 37°C. At 0, 5, 15, 30, and 45 min of the incubation, 135 µL of acetonitrile was added to the corresponding wells to terminate the reaction. After the reaction was terminated with acetonitrile at the last time point of 45 min, the deep-well plate was vortexed for 10 min (600 rpm/min), and then centrifuged for 15 min. After centrifugation, the supernatant was collected, and added with purified water in a ratio of 1:1 to perform LC-MS/MS detection. A ratio of a peak area of compound to a peak area of internal standard at each time point was obtained, and the peak area ratios of the compound at 5, 15, 30, and 45 min were compared with the peak area ratio at 0 min to calculate the remaining percentage of the compound at each time point. T1/2 was calculated by using GraphPad 5 software.
# [2] = system: Mia Paca-2 pancreatic cancer; test: In vivo efficacy test on Mia Paca-2 pancreatic cancer; set-up: species or system mice; conditions: for Average tumor weight at the end of the treatment / Tumor weight inhibition rate (relative to the vehicle group): BID
# Procedure: After one week of adaptive feeding of mice, Mia Paca-2 cells in a logarithmic phase were resuspended in serum-free DMEM, and then mixed with Matrigel in a ratio of 1: 1. 1 × 10^7 Mia Paca-2 cells were inoculated subcutaneously at the right flank at 100 µL per mouse, and tumor growth was observed regularly. When the tumor grew to an average volume of 150 to 200 mm^3, the mice were randomly divided into a model group and an administration group (single drug, in combination with trametinib) based on the tumor size and body weight. The tumor size and body weight were measured and recorded before and during the administration. After the treatment, the tumor size in the model group was compared with that in the administration group to determine the efficacy.
smiles,measurement,setting,value
"Cc1nc(N[C@H](C)c2cccc(S(F)(F)(F)(F)F)c2)c2cn(C3(CF)CC3)c(=O)cc2n1 [Compound of formula I, (R)-6-(1-(fluoromethyl)cyclopropyl)-2-methyl-4-((1-(3-(pentafluorosulfanyl)phenyl)ethyl)amino)pyrido[4,3-d]pyrimidin-7(6H)-one]",half-life at 1 µM,[1],12.8 h
same,Remaining percentage (%) of compound after incubation for 30 min,"[1]; incubation for 30 min, 37°C",98.7%
same,Average tumor weight at the end of the treatment,"[2]; Mia Paca-2, 25 mg/kg",0.35 g
same,Tumor weight inhibition rate (relative to the vehicle group),"[2]; Mia Paca-2, 25 mg/kg",70%
same,Average tumor weight at the end of the treatment,"[2]; Mia Paca-2, 50 mg/kg",0.27 g
same,Tumor weight inhibition rate (relative to the vehicle group),"[2]; Mia Paca-2, 50 mg/kg",76%
same,inhibitory effect on Mia Paca-2 tumor growth,[2]; alone (single drug),significant inhibitory effect
same,efficacy of combined use compared with single use,"[2]; combination with trametinib vs single use, Mia Paca-2",more effective than the single use
same,inhibitory effect on Mia Paca-2 tumor growth,[2]; in combination with trametinib,significant inhibitory effect
